# Data reported in PubChem BioAssay (NCI).
# Values joined by “and” are separate entries in the source; they are usually repeats but may differ in a detail not shown here. Equal entries are not always repeated.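 Where inhibition never reached the appropriate level, the endpoint shown equals the highest concentration tested. Otherwise, values were interpolated linearly from a five-concentration, 48-hour dose response in 96-well plates. Here, GI50 denotes the concentration required for 50% inhibition of growth. TGI marks complete inhibition of growth.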
# Key:
# Assay in all cases: NCI anticancer screen, dose series, 48 h
# IGROV1 ovarian = tested on: IGROV1 ovarian
# UACC-257 melanoma = tested on: UACC-257 melanoma
# HCC-2998 colon = tested on: HCC-2998 colon
# UO-31 renal = tested on: UO-31 renal
# CCRF-CEM leukemia = tested on: CCRF-CEM leukemia
# EKVX NSCLC = tested on: EKVX NSCLC
# COLO 205 colon = tested on: COLO 205 colon
# SK-MEL-5 melanoma = tested on: SK-MEL-5 melanoma
# OVCAR-8 ovarian = tested on: OVCAR-8 ovarian
# SN12C renal = tested on: SN12C renal
Structure (SMILES),GI50 (IGROV1 ovarian) [µM],TGI (IGROV1 ovarian) [µM],GI50 (UACC-257 melanoma) [µM],TGI (UACC-257 melanoma) [µM],GI50 (HCC-2998 colon) [µM],TGI (HCC-2998 colon) [µM],GI50 (UO-31 renal),TGI (UO-31 renal) [µM],GI50 (CCRF-CEM leukemia),TGI (CCRF-CEM leukemia) [µM],GI50 (EKVX NSCLC) [µM],TGI (EKVX NSCLC) [µM],GI50 (COLO 205 colon) [µM],TGI (COLO 205 colon) [µM],GI50 (SK-MEL-5 melanoma) [µM],TGI (SK-MEL-5 melanoma) [µM],GI50 (OVCAR-8 ovarian) [µM],TGI (OVCAR-8 ovarian) [µM],GI50 (SN12C renal) [µM],TGI (SN12C renal) [µM]
COc1ccc2nc3cc(Cl)ccc3c(Nc3cc(C(C)C)c(O)cc3C)c2c1,1.55,3.35,1.35,3.07,2.22,5.58,1.49 µM,2.98,2.08 µM,6.63,2.22,7.75,1.81,3.64,1.61,3.1,2.06,4.47,2.55,7.42
O=C1NC(=O)C(c2c[nH]c3ccccc23)=C1c1ccccc1,> 25,> 25,> 25,> 25,> 25,> 25,> 24 µM,> 25,> 25 µM,> 25,–,–,> 25,> 25,> 25,> 25,> 25,> 25,> 25,> 25
N=C1/C(=C2\Nc3ccccc3S2)CC(=O)N1c1ccc(SC(F)F)cc1,5.07,> 100,> 100,> 100,–,–,7.38 µM,> 100,0.839 µM,> 100,24.5,> 100,11.2,> 100,5.85,> 100,7.42,> 100,> 100,> 100
N=C1C(c2nc3ccccc3s2)=C(O)CN1c1cc(Cl)cc(Cl)c1,–,–,40.2,> 100,> 100,> 100,91.3 µM,> 100,> 100 µM,> 100,> 100,> 100,> 100,> 100,> 100,> 100,> 100,> 100,> 100,> 100
O=c1[nH]c(SCc2ccccc2[N+](=O)[O-])nc2nc[nH]c12,–,> 100,–,> 100,–,–,> 100 µM and 35.1 µM,> 100,> 100 µM and 29.6 µM,> 100,–,> 100,–,> 100,–,> 100,–,> 100,–,> 100
Cn1cc(C2=C(c3c(S(C)=O)n(C)c4ccccc34)C(=O)NC2=O)c2ccccc21 (configuration not stated),10.8,> 25,> 25,> 25,18.9,> 25,3.89 µM,> 25,7.19 µM,> 25,–,–,5.96,> 18.6,6.96,> 25,12.3,> 25,14,> 25
NCC1(N2CCOCC2)C2CCCC21CNc1ccccc1 (configuration not stated),–,> 100,–,> 100,–,> 100,–,> 100,–,> 100,–,–,–,> 100,–,> 100,–,> 100,–,> 100
